Test results as given in patent US11612601B1, “Targeting epidermal growth factor to treat vascular calcification” (THE FLORIDA INTERNATIONAL UNIVERSITY BOARD OF TRUSTEES, priority 2022, dated 2023).

Columns and labels:
CKD mice = assay: Kidney renal fibrosis marker qRT-PCR and H&E histology in CKD mice; format: in vivo, mouse
Experimental: To assess histological changes in kidneys due to renal injury, Hematoxylin and Eosin (H&E) staining was performed. The kidneys resected from the mice were fixed using formalin (10%) for three hours. Tissues were embedded using Tissue-Plus OCT (Fisher Scientific, 23-730-571). The samples were cryosectioned with a thickness of 12 μm and stained using rapid chrome H&E staining kit (Thermo Scientific, 9990001).
To isolate RNA from the resected kidneys, the tissues were homogenized using a grinder (Sigma, Z529672) and lysed in 1 mL TRIzol solution. After 10 min incubation at room temperature, the samples were centrifuged at 12,000×g for 10 min at 4° C. The supernatants were collected and 200 μL of chloroform (Sigma Aldrich, C2432) were added to each sample. The samples were vortexed, incubated at room temperature for 10 min, and centrifuged for 15 min at 12,000×g, 4° C. The aqueous phase was collected from each sample and 500 μL of isopropanol was added; the samples were vortexed, incubated for 15 min at room temperature following by 15 min on ice, and centrifuged at 21,000×g for 15 min. The supernatants were discarded, and pellets were washed twice with 500 μL cold ethanol (75% v/v) and centrifuged at 21,000×g for 5 min. The isolated RNA templates were heated at 65° for 15 min, and the concentrations were measured using a spectrophotometer (NanoDrop Lite, Thermo scientific). Power SYBR Green RNA-to-CT 1-Step Kit with 100 ng isolated template RNA per reaction was used.
The following mouse primer sequences were purchased from Eurofins Scientific; Gapdh Forward: AACGACCCCTTCATTGAC (SEQ ID NO: 9) and Reverse: TCCACGACATACTCAGCAC (SEQ ID NO: 10); Colla1 Forward: […] (SEQ ID NO: 11) and Reverse: […] (SEQ ID NO: 12); Tgfb1 Forward: […] (SEQ ID NO: 13) and Reverse: CAGCAGCCGGTTACCAAG (SEQ ID NO: 14).

[1] = tested on: Primary human coronary artery vascular smooth muscle cells; assay: In vitro calcification of VSMCs, Alizarin Red S staining; format: cell-based; conditions: OS media, 2.5 μM, 28 days
Experimental: Primary human coronary artery vascular smooth muscle cells, (VSMCs, ATCC, PCS-100-021) were cultured using vascular smooth muscle cell media and growth kit (ATCC, PCS-100-042). VSMCs (passage 4-6) were harvested using 0.05% trypsin-EDTA solution (Caisson Labs, TRL04) and seeded with a density of 26,320 cells.cm^−2 and incubated for 72 hours at 37° C., 5% CO2 with controlled humidity prior to treatment. VSMCs were treated with either control media, consisting of DMEM (HyClone, SH30022.01), 10% v/v bovine calf serum (iron-supplemented, R&D Systems, S11950), and 1% v/v penicillin-streptomycin (Gibco, 15070-063), or with an osteogenic media (OS) optimized to induce calcification. OS media were supplemented with 10 mM β-glycerophosphate (Sigma, 13408-09-8), 0.1 mM L-ascorbic acid (Sigma, 113170-55-1), and 10 nM dexamethasone (Sigma, 50-02-2).
To assess the role of EGFR inhibition, tyrphostin AG1478 (Millipore Sigma, T4182) was dissolved in vehicle (DMSO:Methanol, 1:1) and added to OS media to a final concentration of 2.5 μM. An equal volume of vehicle was added to the control and OS groups. […]
To quantify the in vitro calcification, ARS stain was extracted using acetic acid (1.67 M, Fisher Chemical, A38S) on a shaker. […] Sample absorbance of 405 nm was measured using a multi-mode reader (BioTek, Synergy HTX).

## COc1cc2ncnc(Nc3cccc(Cl)c3)c2cc1OC [AG1478, tyrphostin AG1478]
CKD mice; CKD mice
  expression of common markers of renal injury: does not reduce
CKD mice; kidney, CKD mice treated vs CKD, p=0.6
  Gene expression of renal fibrosis marker Colla1: no significant differences
CKD mice; kidney, CKD mice treated vs CKD, p=0.7
  Gene expression of renal fibrosis marker Tgfb1: no significant differences
[1]
  in vitro calcification of VSMCs (ARS staining): abrogated
